According to US4766133A, “(Bezimidazol-2-yl)-pyridinium compounds” (priority 1985, dated 1988):
Read-outs that look alike come from different tables or passages of the source.

How the values were obtained:
[1] = acute toxicity (single oral administration to mice); conditions: mouse, in vivo, read-out: Toxicity, LD 50
Source text: In the following Table there are given for a series of representative compounds of formula I the results of the testing with respect to their anti-ulcer activity and to their gastric secretion-inhibiting activity. Moreover, this Table contains data concerning the acute toxicity (LD50 in the case of single oral administration to mice).

[2] = system: indomethacin-induced lesions of the stomach; test: anti-ulcer activity (indomethacin-induced lesions of the stomach); format: in vivo; conditions: Rattus norvegicus, po, read-out: Anti-ulcer, ED50
Protocol: The experimental procedure described hereinafter was used to determine the anti-ulcer activity:
Groups each comprising 8 male rats with a body weight of 130-150 g are used for each dosage of a test substance. Before the beginning of the experiment the animals receive no food for 24 hours, but receive water ad libitum. Various dosages of the substances to be tested (suspended in 0.5% tragacanth) or the vehicle alone (controls) are administered twice perorally, namely 1 hour before and 2 hours after the peroral administration of 20 mg/kg of indomethacin. […] The animals are killed 6 hours after the first administration of the substanoe under investigation (or of the vehicle alone). The rats which remain protected from the occurrence of macroscopically visible lesions to the mucous membrane of the stomach are counted.

[3] = system: gastric acid secretion stimulated by 4-methylhistamine; test: gastric acid secretion-inhibiting activity (Heidenhain type pouch, 4-methylhistamine stimulated); format: in vivo, beagle hounds (dog); conditions: Canis lupus familiaris, read-out: Gastric acid secretion-inhibition, ED50
Protocol: The experimental procedure described hereinafter was used to determine the gastric acid secretion-inhibiting activity:
In the pouch there is fitted a steel cannula which is conducted externally through the abdominal wall. Before each experiment the animals receive no food for 18 hours, but receive water ad libitum. They are conscious and standing during the experiment and their gastric acid secretion is stimulated by the intravenous infusion of 4-methylhistamine, a selective agonist of the histamine H2 -receptors. The gastric acid production is determined in 15 minute fractions of the stomach pouch juioe. As soon as the gastric acid production has a constant value, the substances to be tested are administered orally as a dry powder filled into gelatine capsules.

[4] = male rats, p.o. twice, 1 h before and 2 h after 20 mg/kg indomethacin p.o., 50% of animals protected from lesions
[5] = conscious beagle hounds, Heidenhain type pouch, 4-methylhistamine i.v. infusion, oral dry powder in gelatine capsules, 50% inhibition

| SMILES | LD50 [1] [mg/kg] | ED50 [2, 4] [mg/kg] | ED50 [3, 5] [mg/kg] | ED50 [2] [mg/kg] | ED50 ([3]; po) [mg/kg] |
| --- | --- | --- | --- | --- | --- |
| COc1cc[n+](-c2nc3cc4c(cc3[nH]2)C(C)(C)C(=O)C4(C)C)c(CSSCCC(N)C(=O)O)c1C.[Cl-] (racemic) [P, 2-[[[(RS)-3-Amino-3-carboxypropyl]dithio]methyl]-4-methoxy-3-methyl-1-(1,5,6,7-tetrahydro-5,5,7,7-tetramethyl-6-oxoindeno[5,6-d]imidazol-2-yl)pyridinium chloride] | 312 to 625 | 1.9 | 4.1 | – | – |
| CCCSSCc1c(C)c(OC)cc[n+]1-c1nc2ccc(C(F)(F)F)cc2[nH]1.[Cl-] [A, 2-[(propyldithio)methyl]-4-methoxy-3-methyl-1-[5-(trifluoromethyl)-2-benzimidazolyl]pyridinium chloride] | > 5000 | 1.2 | 1.5 | – | – |
| COc1cc[n+](-c2nc3ccc(C(F)(F)F)cc3[nH]2)c(CSSC[C@H](N)C(=O)O)c1C.[Cl-] [B, 2-[[[(R)-2-Amino-2-carboxyethyl]dithio]methyl]-4-methoxy-3-methyl-1-[5-(trifluoromethyl)-2-benzimidazolyl]pyridinium chloride] | 1250 to 2500 | 2.5 | 2.8 | – | – |
| COc1cc[n+](-c2nc3cc(C(F)(F)F)ccc3[nH]2)c(CSSC[C@H](NC(=O)CC[C@H](N)C(=O)O)C(=O)NCC(=O)O)c1C [C, 2-[[[(R)-2-[(S)-4-Amino-4-carboxybutyramido]-2-[(carboxymethyl)carbamoyl]ethyl]dithio]methyl]-4-methoxy-3-methyl-1-[(5-trifluoromethyl)-2-benzimidazolyl]pyridinium chloride] | 1250 to 2500 | 3 | 3 | – | – |
| CCCCCCSSCc1c(C)c(OC)cc[n+]1-c1nc2ccc(C(F)(F)F)cc2[nH]1.[Cl-] [D, 2-[(Hexyldithio)methyl]-4-methoxy-3-methyl-1-[5-(trifluoromethyl) -2-benzimidazolyl]pyridinium chloride] | > 5000 | 1.9 | 6.8 | – | – |
| COc1cc[n+](-c2nc3ccc(C(F)(F)F)cc3[nH]2)c(CSSc2ccccc2Cl)c1C.[Cl-] [E, 2-[[(o-Chlorophenyl)dithio]methyl]-4-methoxy-3-methyl-1-[5-(trifluoromethyl)-2-benzimidazolyl]pyridinium chloride] | > 5000 | 2.1 | 6 | – | – |
| CCSSCc1c(C)c(OC)cc[n+]1-c1nc2ccc(C(F)(F)F)cc2[nH]1.[Cl-] [F, 2-[(Ethyldithio)methyl]-4-methoxy-3-methyl-1-[5-(trifluoromethyl)-2-benzimidazolyl]pyridinium chloride] | 1250 to 2500 | 1.7 | 1.6 | – | – |
| COc1cc[n+](-c2nc3cc(C(F)(F)F)ccc3[nH]2)c(CSSCCN)c1C [G, 2-[[(2-Aminoethyl)dithio]methyl]-4-methoxy-3-methyl-b 1-[5-(trifluoromethyl)-2-benzimidazolyl]pyridinium chloride] | 312 to 625 | 2.3 | 1.5 | – | – |
| COc1cc[n+](-c2nc3cc4c(cc3[nH]2)C(C)(C)C(=O)C4(C)C)c(CSSc2cccc(Cl)c2)c1C [H, 2-[[(m-Chlorophenyl)dithio]methyl]-4-methoxy-3-methyl-1-(1,5,6,7-tetrahydro-5,5,7,7-tetramethyl-6-oxoindeno[5,6d]imidazol-2-yl)pyridinium chloride] | 1250 to 2500 | 1.8 | 6.2 | – | – |
| COc1cc[n+](-c2nc3cc4c(cc3[nH]2)C(C)(C)C(=O)C4(C)C)c(CSSC[C@H](N)C(=O)O)c1C.[Cl-] [I, 2-[[[(R)-2-Amino-2-carboxyethyl]dithio]methyl]-4-methoxy-3-methyl-1-(1,5,6,7-tetrahydro-5,5,7,7-tetramethyl-6-oxoindeno[5,6-d]imidazol-2-yl)pyridinium chloride] | 312 to 625 | 2.3 | 3.9 | – | – |
| CCOC(=O)CC(SSCc1c(C)c(OC)cc[n+]1-c1nc2ccc(C(F)(F)F)cc2[nH]1)C(=O)OCC.[Cl-] (centres unmarked) [J, 2-[[[1,2-Bis-(ethoxycarbonyl)ethyl]dithio]methyl]-4-methoxy-3-methyl-1-[5-(trifluoromethyl)-2-benzimidazolyl]pyridinium chloride] | 1250 to 2500 | 2.4 | 2.2 | – | – |
| CCSSCc1c(C)c(OC)cc[n+]1-c1nc2cc3c(cc2[nH]1)C(C)(C)C(=O)C3(C)C.[Cl-] [K, 2-[(Ethyldithio)methyl]-4-methoxy-3-methyl-1-(1,5,6,7-tetrahydro-5,5,7,7-tetramethyl-6-oxoindeno[5,6-d]-imidazol-2-yl)pyridinium chloride] | 312 to 625 | 2.3 | 6.5 | – | – |
| CCCSSCc1c(C)c(OC)cc[n+]1-c1nc2cc3c(cc2[nH]1)C(C)(C)C(=O)C3(C)C.[Cl-] [L, 4-Methoxy-3-methyl-2-[(propyldithio)methyl]-1-(1,5,6,7-tetrahydro-5,5,7,7-tetramethyl-6-oxoindeno[5,6-d]-imidazol-2-yl)pyridinium chloride] | 312 to 625 | 1.6 | 3.4 | – | – |
| CCOC(=O)[C@@H](N)CSSCc1c(C)c(OC)cc[n+]1-c1nc2cc3c(cc2[nH]1)C(C)(C)C(=O)C3(C)C.[Cl-] [M, 2-[[[(R)-2-Amino-2-(ethoxycarbonyl)ethyl]dithio]methyl]-4-methoxy-3-methyl-1-(1,5,6,7-tetrahydro-5,5,7,7-tetramethyl-6-oxoindeno[5,6-d]imidazol-2-yl)pyridinium chloride] | 312 to 625 | 1.6 | 4.6 | – | – |
| COc1cc[n+](-c2nc3cc4c(cc3[n-]2)C(C)(C)C(=O)C4(C)C)c(CSSCCN(C)C)c1C [N] | – | – | – | 1.5 | 3.7 |
| COc1cc[n+](-c2nc3cc4c(cc3[nH]2)C(C)(C)C(=O)C4(C)C)c(CSSCCO)c1C.[Cl-] [O, 2-[[(2-Hydroxyethyl)dithio]methyl]-4-methoxy-3-methyl-1-(1,5,6,7-tetrahydro-5,5,7,7-tetramethyl-6-oxoindeno[5,6-d]imidazol-2-yl)pyridinium chloride] | 312 to 625 | 2.3 | 2.9 | – | – |
| COc1cc[n+](-c2nc3cc4c(cc3[nH]2)C(C)(C)C(=O)C4(C)C)c(CSSC2CCCC2)c1C.[Cl-] [Q, 2-[(Cyclopentyldithio)methyl]-4-methoxy-3-methyl-1-(1,5,6,7-tetrahydro-5,5,7,7-tetramethyl-6-oxoindeno[5,6-d]imidazol-2-yl)pyridinium chloride] | 312 to 625 | 1.6 | 4.9 | – | – |
